According to ChEMBL document CHEMBL1201862, “PubChem BioAssay data set” (2004):
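96-well plates; 48 h exposure; 5 concentrations. Endpoints by linear interpolation between flanking doses. Not reached: highest tested concentration assigned. GI50: concentration for 50% inhibition of growth.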 Calls of active or inactive are those of the source. Cut-off read from the data, not from the text of the source: active = GI50 up to about 1.1 µM and inactive = higher. Where a SMILES comes first, the peptide text is derived from it. The star is where a group is joined. Cbz = O=C(OCc1ccccc1)*

Legend:
Assay in all cases: NCI anticancer screen, dose series, 48 h
HOP-62 = tested on: HOP-62
Malme-3M = tested on: Malme-3M
MDA-MB-231 = tested on: MDA-MB-231
SK-MEL-5 = tested on: SK-MEL-5
PC-3 = tested on: PC-3
SK-OV-3 = tested on: SK-OV-3
SF-268 = tested on: SF-268
HCC 2998 = tested on: HCC 2998
RPMI-8226 = tested on: RPMI-8226
NCI-H226 = tested on: NCI-H226
NCI-H23 = tested on: NCI-H23
HOP-92 = tested on: HOP-92
CAKI-1 = tested on: CAKI-1
RXF 393 = tested on: RXF 393
IGROV-1 = tested on: IGROV-1
ACHN = tested on: ACHN
LOX IMVI = tested on: LOX IMVI
U-251 = tested on: U-251
SK-MEL-28 = tested on: SK-MEL-28
OVCAR-8 = tested on: OVCAR-8

Measured: GI50

COc1cc2c(/C=C3/C(=O)Nc4ccccc43)c(Cl)n(Cc3ccc(Cl)cc3)c2cc1C
active: HOP-62 0.237 µM | Malme-3M 0.843 µM | MDA-MB-231 0.216 µM | SK-MEL-5 0.384 µM | PC-3 0.608 µM | SK-OV-3 0.305 µM | SF-268 0.675 µM | HCC 2998 0.134 µM | RPMI-8226 0.27 µM | NCI-H226 0.336 µM | NCI-H23 0.24 µM | CAKI-1 0.263 µM | RXF 393 0.339 µM | IGROV-1 0.538 µM | ACHN 0.324 µM | LOX IMVI 0.344 µM | U-251 0.307 µM | SK-MEL-28 0.386 µM | OVCAR-8 0.299 µM
inactive: HOP-92 11.8 µM

COC(=O)C(CC(C)C)NC(=O)C(CCCNC(=N)N)NC(=O)OCc1ccccc1 (stereo not drawn) (Cbz-Arg-Leu-OMe; configuration not given here)
inactive: HOP-62 > 100 µM | Malme-3M > 100 µM | MDA-MB-231 > 100 µM | SK-MEL-5 > 100 µM | PC-3 > 100 µM | SK-OV-3 > 100 µM | SF-268 > 100 µM | HCC 2998 > 100 µM | RPMI-8226 > 100 µM | NCI-H226 > 100 µM | NCI-H23 > 100 µM | HOP-92 > 100 µM | CAKI-1 > 100 µM | RXF 393 > 100 µM | IGROV-1 > 100 µM | ACHN > 100 µM | LOX IMVI > 100 µM | U-251 > 100 µM | SK-MEL-28 > 100 µM | OVCAR-8 > 100 µM
